According to patent publication US20030105048A1, “Oligobenzimidazole derivatives and their use as DNA transfecting agents” (priority 1999, published 2003):

Tests used:
mouse muscles = assay: In vivo intramuscular transfection of plasmid pXL3031 (luciferase expression) with or without electrotransfer; parameters: species or system C57B16 mice; details: 4 μg of DNA/muscle, 7 days
Protocol: The plasmid used is the same as the one described above for Example 5 (pXL3031). Similarly, the cytofecting solutions are prepared in the same way as in Example 5.
25 μl of solutions of derivative (1)/DNA complexes are injected intramuscularly to C57B16 mice, at a rate of 4 μg of DNA/mouse muscle.
The transfection efficacy is evaluated 7 days 5 after transfection by measuring the expression of luciferase according to the recommendations given for using the Promega kit (Luciferase Assay System). The muscles are ground in 1.5 ml of lysis buffer (with protease inhibitors). After assaying the luciferase activity on 10 μl, the results are expressed as RLU/10 μl/10 sec.
The in vivo luciferase activity results in mouse muscles, expressed in RLU/10 μl/10 sec, are collated in the table below: […]

DNA plasmid = assay: Agarose gel electrophoresis of DNA plasmid complexed with derivative or cationic lipid; type: binding; details: increasing amounts per μg of DNA; revealed with ethidium bromide
Protocol: For this, an agarose gel of a DNA plasmid mixed with increasing amounts of derivative (1) or (2) according to the invention was prepared (see FIG. 4). […] Two bands could thus be observed by virtue of the specific spectral absorption properties of the derivatives according to the present invention:
It is observed that the DNA migrates in an identical manner to the naked DNA, irrespective of the concentration of derivative 20 according to the invention.

HeLa cells = assay: In vitro transfection of plasmid pXL3031 (luciferase expression) in the presence and absence of serum; type: cell-based; details: 48 hours after transfection
Protocol: The plasmid used The DNA used is the plasmid pXL3031 (see FIG. 7) as a solution in a mixture of 5% dextrose and 10 mM sodium chloride at a concentration of 0.5 mg/ml or 1.0 mg/ml. This plasmid contains the luc gene encoding luciferase under the control of the cytomegalovirus P/E CMV promoter. Its size is 3671 bp. The plasmid pXL3031 was purified according to the methods described in patent application WO 97/35002.
The nucleic acid solutions are diluted to 20 μg/ml in physiological saline (0.15 M sodium chloride).
The oligobenzimidazole derivative (2) according to the invention is dissolved in water to a concentration ranging from 40 to 160 μmol and mixed, volume for volume, with the DNA solution. The final saline concentration is 75 mmol.
HeLa cells are cultured under suitable conditions on 24-well microplates (2 cm^2/well) and are transfected while they are in the exponential growth phase and at 50-70% of confluence.
The cells are washed with twice 0.5 cm^3 of medium free of seric proteins and are regrown either in serum-free medium (transfection in the absence of serum) or in whole medium (transfection in the presence of serum). 0.05 cm^3 of cytofecting mixture (0.5 μg of DNA/well) are added to the cells (3 wells/DNA-vector condition). When the cells are transfected in the absence of serum, the growth medium is supplemented, 2 hours after the transfection, with a suitable amount of serum.
The transfecting efficacy is evaluated 48 hours after transfection by measuring the expression of luciferase according to the recommendations given for using the Promega kit (“Luciferase Assay System”). The toxicity of the cytofecting mixtures is estimated by measuring the protein concentrations in cell lysates.
The in vitro luciferase activity results relative to the proteins expressed in RLU/5 μl/10 s/μg of protein (written more simply as RLU/μg of protein, “RLU” meaning “relative light unit”) are given in the table below: […]

Structure (SMILES) | in vivo luciferase activity in mouse muscles (mouse muscles; 0.2 nmol/μg of DNA, with electrotransfer) | in vivo luciferase activity in mouse muscles (mouse muscles; 0.2 nmol/μg of DNA, without electrotransfer) | in vivo luciferase activity in mouse muscles (mouse muscles; 0.5 nmol/μg of DNA, with electrotransfer) | in vivo luciferase activity in mouse muscles (mouse muscles; 0.5 nmol/μg of DNA, without electrotransfer) | in vivo luciferase activity in mouse muscles (mouse muscles; 1 nmol/μg of DNA, with electrotransfer) | in vivo luciferase activity in mouse muscles (mouse muscles; 1 nmol/μg of DNA, without electrotransfer) | electrophoretic mobility of complexes with DNA on agarose gel (DNA plasmid) | in vitro luciferase activity (HeLa cells; 4 nmol/μg of DNA, + serum) | in vitro luciferase activity (HeLa cells; 4 nmol/μg of DNA, absence of serum) | in vitro luciferase activity (HeLa cells; 8 nmol/μg of DNA, + serum) | in vitro luciferase activity (HeLa cells; 8 nmol/μg of DNA, absence of serum) | in vitro luciferase activity (HeLa cells; 10 nmol/μg of DNA, + serum) | in vitro luciferase activity (HeLa cells; 10 nmol/μg of DNA, absence of serum)
CCCCCCCCCCCCCCCCCCNC(=O)Oc1ccc(-c2nc3ccc(-c4nc5ccc(N6CCN(C)CC6)cc5[nH]4)cc3[nH]2)cc1 [Derivative (1), 4-[6-(4-methyl-1-piperazinyl)-1H,3′H-[2,5′]bisbenzimidazol-2′-yl]-1-octadecylcarbamoyloxy phenyl] | 1.14 E+07 RLU/10 μl/10 sec | 3.45 E+04 RLU/10 μl/10 sec | 2.19 E+07 RLU/10 μl/10 sec | 1.67 E+04 RLU/10 μl/10 sec | 1.82 E+07 RLU/10 μl/10 sec | 1.06 E+04 RLU/10 μl/10 sec | same electrophoretic mobility properties as the naked DNA | – | – | – | – | – | –
CCCCCCCCCCCCNC(=O)Oc1ccc(-c2nc3ccc(-c4nc5ccc(N6CCN(C)CC6)cc5[nH]4)cc3[nH]2)cc1 [Derivative (2), 4-[6-(4-methyl-1-piperazinyl)-1H,3′H-[2,5′]bisbenzimidazol-2′-yl]-1-dodecylcarbamoyloxy phenyl] | – | – | – | – | – | – | same electrophoretic mobility properties as the naked DNA | 9.8 E+02 RLU/μg of protein | 1.3 E+03 RLU/μg of protein | 4.6 E+02 RLU/μg of protein | 1.7 E+03 RLU/μg of protein | 1.1 E+02 RLU/μg of protein | 1.7 E+03 RLU/μg of protein
CCCCCCCCCCCCCCN(CCCCCCCCCCCCCC)C(=O)CNC(=O)CNCCN(CCN)CCN [cationic lipid, reference compound] | – | – | – | – | – | – | varies with the amount of cationic lipid present with the DNA | – | – | – | – | – | –
